In PubChem BioAssay (NCI):
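In this assay, cells in 96-well plates receive the compound at five concentrations for 48 hours. Endpoints are linearly interpolated between the surrounding concentrations. GI50 is the concentration that inhibits growth by half. The concentration for full growth arrest is given as TGI.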

Legend:
Assay in all cases: DTP human tumour cell line panel, 48 h
UO-31 renal = test system: UO-31 renal
MALME-3M melanoma = test system: MALME-3M melanoma
COLO 205 colon = test system: COLO 205 colon
HT29 colon = test system: HT29 colon
EKVX NSCLC = test system: EKVX NSCLC
SNB-75 CNS = test system: SNB-75 CNS
SF-268 CNS = test system: SF-268 CNS

| SMILES | GI50 (UO-31 renal) [µM] | TGI (UO-31 renal) [µM] | GI50 (MALME-3M melanoma) [µM] | TGI (MALME-3M melanoma) [µM] | GI50 (COLO 205 colon) [µM] | TGI (COLO 205 colon) [µM] | GI50 (HT29 colon) [µM] | TGI (HT29 colon) [µM] | TGI (EKVX NSCLC) [µM] | TGI (SNB-75 CNS) [µM] | TGI (SF-268 CNS) [µM] |
| --- | --- | --- | --- | --- | --- | --- | --- | --- | --- | --- | --- |
| CC(=O)[CH-]C(=O)c1ccccc1.CC(=O)[CH-]C(=O)c1ccccc1.C[C@]12CCC(=O)C=C1CC[C@@H]1C2CC[C@@]2(C)C1CC[C@@H]2[O-].C[C@]12CCC(=O)C=C1CC[C@@H]1C2CC[C@@]2(C)C1CC[C@@H]2[O-].Cl.[Ti+4] (stereo partly drawn) | 16.5 | 52.5 | 20.1 | 46.8 | 37 | > 100 | 17.5 | 37.2 |  |  |  |
| Cc1ccccc1-n1c2nc(=O)n(C)c(=O)c-2nc2ccccc21 |  | 66.1 |  | 16.8 |  | 13.9 |  | 14.3 | 24.3 | 39.9 | 32.1 |
| Cc1ccc(NC(=O)/C(Cl)=C(/Cl)C(=O)O)cc1 |  | 31.8 |  | 29.3 |  | 20.3 |  | 35 | 31.2 | 34.1 | 42 |
| NCCNCc1c2ccccc2c(CNCCN)c2ccccc12 |  | > 100 |  | 29.8 |  | > 100 |  | > 100 | 50.1 |  | 27.4 |
| O=C1CCSC2=C1SCc1sccc12 |  | > 100 |  | > 100 |  | > 100 |  |  | > 100 | > 100 | > 100 |
| CN1CCN(C)C12C=CC=CC21CC1 |  | > 100 |  | > 100 |  | > 100 |  | > 100 | > 100 | > 100 | > 100 |
| CCNC(=O)O/N=C1\CCC2[C@@H]3CC=C4C[C@@H](OC5CCCCO5)CC[C@]4(C)C3CC[C@]12C (stereo partly drawn) |  | 2.85 |  |  |  |  |  | 13.3 | 5.78 |  |  |
| CC1(c2ccccc2)CC(c2cccc([N+](=O)[O-])c2)=NO1 (stereo not drawn) |  | > 100 |  | > 100 |  | > 100 |  | > 100 |  | > 100 | > 100 |
| CC#CC1C2CCCC1(CSc1ccccc1)NC(=O)O2 (stereo not drawn) |  | > 100 |  | > 100 |  | > 100 |  | > 100 | > 100 | > 100 | > 100 |
| CC1=CC(N2C(=O)C(C)=CC2O)NC1=O (stereo not drawn) |  | > 100 |  | > 100 |  | > 100 |  | > 100 | > 100 | > 100 | > 100 |
| c1ccc2c(c1)N=C(c1cccc3ccccc13)CC(c1ccc3c(c1)OCO3)S2 (stereo not drawn) |  | > 100 |  | > 100 |  | > 100 |  | > 100 | > 100 | > 100 | > 100 |
| C=C(C(=C)P(=S)(c1ccccc1)c1ccccc1)P(=S)(c1ccccc1)c1ccccc1 |  |  |  | > 100 |  | > 100 |  | > 100 | > 100 | > 100 | > 100 |
| COc1ccccc1NC(=O)c1nc2ccc([N+](=O)[O-])cc2nc1C |  | > 100 |  | > 100 |  | > 100 |  | > 100 | > 100 | > 100 | > 100 |
| N/N=c1\c2ccccc2c2cc3c(cc12)/c(=N/N)c1ccccc13 |  | > 100 |  | > 100 |  | > 100 |  | > 100 | > 100 | > 100 | > 100 |
| O=C(/C(=C\c1ccc(Cl)cc1)c1ccccc1)c1ccccc1 |  | > 100 |  | > 100 |  | > 100 |  | > 100 | > 100 | > 100 | > 100 |
| OCc1c[te]c(-c2ccccc2)c1 |  | 79.4 |  | > 100 |  |  |  |  | > 100 | > 100 |  |
| Cc1ccc(S(=O)OCC23CC4CC(CC(C4)C2)C3)cc1 (stereo not drawn) |  | > 100 |  | > 100 |  | > 100 |  | > 100 | > 100 | > 100 | > 100 |
| NNC(=O)N/N=C1\C(=O)N(c2ccc(Cl)c(Cl)c2)C(=O)C(=O)C1c1nc2ccccc2s1 (stereo not drawn) |  | > 100 |  | > 100 |  | > 100 |  | > 100 | > 100 | > 100 | > 100 |
| O=C(COC(=O)c1cccc2c(=O)c3ccccc3[nH]c12)Nc1ccc(C(=O)O)cc1 |  | > 100 |  | > 100 |  | > 100 |  | > 100 | > 100 | > 100 | > 100 |
| Cc1cc(C)nc(NS(=O)(=O)c2ccc(Nc3c4ccc(Cl)cc4nc4c(C(=O)NCCN(C)C)cccc34)cc2)n1 |  | > 100 |  | > 100 |  | > 100 |  | > 100 | > 100 | > 100 | > 100 |
| COC(=O)C(Cc1nc2ccccc2nc1C)/C(=N\NC(N)=O)C(=O)Nc1cccc([N+](=O)[O-])c1 (stereo not drawn) |  | > 100 |  | > 100 |  | > 100 |  | > 100 | > 100 | > 100 | > 100 |
| COC(=O)C1=C(C(=O)OC)C2(C)Nc3ccccc3C2=C(c2ccccc2)C1 (stereo not drawn) |  | 38.2 |  | 37.1 |  | 34 |  | 70.6 | 70.5 |  | 66.5 |
